# Test results reported in patent US4044043A, “Derivatives of 9-oxo-13-trans-prostenoic acid esters” (American Cyanamid Company, priority 1975, dated 1977).
# Key:
# gastric acid secretion = assay: Inhibition of Gastric Acid Secretion (Pylorous-Ligated Rat), Shay rat procedure; type: in vivo, rats (male, CFE strain); conditions: 100 mg./kg. intraduodenal, read-out: % Inhibition of Control Gastric Acid Secretion
# Text: The novel compounds of the present invention are also effective inhibitors of gastric acid secretion and of ulcer development in experimental animals, and thus are potentially valuable as agents for the control of gastric acid secretion and of gastric erosion and as anti-ulcer agents. Gastric acid secretion inhibitory action is usually measured by the Shay rat procedure ^(1,2) with some modifications as follows. 6 1. Shay et al., Gastroenterology, 5, 43 (1945). 6 2. Shay et al., Gastroenterology, 26, 906 (1954).
# The rats (male, CFE strain) were starved for 48 hours (water was given ad libitum) to permit evacuation of stomach contents. On the morning of the experiment, under ether anesthesia, the abdominal region was shaved and a midline incision (1-1 1/2 inch) was made with a scalpel. With the help of a closed curved hemostat the duodenum was picked up. Upon getting the duodenum into view fingers were used to pull the stomach through the opening, the stomach was then gently manipulated with fingers to rid stomach of air and residual matter which were pushed through the pylorus. Two 5-inch sutures were drawn under the pyloric-duodenal puncture. A ligature, at the juncture, was formed with one of the threads. The second ligature was also formed but not tightened.
# The test compound or the vehicle, usually 1 ml./100 g. body weight, were injected into the duodenum as close as possible to the first ligature. After injection the second ligature was tightened below the injection site to minimize leakage. The stomach was placed back through the opening into the abdominal cavity, the area of incision was washed with saline and the incision was closed with autoclips. (Ocasionally instead of an intraduodenal injection, animals were dosed by the oral or subcutaneous route. In the latter case, dosing was done thirty to sixty minutes before the operation).
# The abdominal cavity was exposed by cutting with scissors and the esophagus close to the stomach was clamped off with a hemostat, the stomach was removed by cutting above the hemostat (the esophagus was cut) and between the two sutures. Extraneous tissue was removed, the stomach washed with saline and blotted on gauze. A slit was carefully made in the stomach which was held over a funnel and the contents were collected in a centrifuge tube. The stomach was further cut along the outside edge and turned inside out. Two ml. of water were used to wash the stomach contents into the respective centrifuge tube. The combined stomach contents and wash were then centrifuged out for 10 minutes in the International Size 2 Centrifuge (setting at 30). The supernatant was collected, volume measured and recorded, 2 drops of phenolphthalein indicator (1% in 95% ethanol) were added and the solution was titrated with 0.02N NaOH (or with 0.04N NaOH when large volumes of stomach contents were encountered) to pH 8.4 (because of usual coloring of the stomach contents, phenolphthalein was only used to permit visual indication that the end point was near) and the amount of acid present was calculated.
# Compounds inducing inhibition of gastric acid secretion of 20% or more were considered active. In a representative operation, and merely by way of illustration, the results obtained with this assay with typical compounds of the present invention are given in Table IIIA.
# [1] = test system: dl-PGE1-induced contraction of gerbil colon; assay: Inhibition of dl-PGE1-Induced Contraction of Gerbil Colon (prostaglandin antagonist action); type: cell-based, gerbils (Meriones unguiculatus); conditions: for IC50: Meriones unguiculatus, 1 min, sub-maximal challenge, 20 ng./ml. dl-PGE1, 50% inhibition of maximum response, read-out: ID50 vs. 20 ng. of PGE1/ml.
# Method: The compounds of this invention are also useful as antagonists of prostaglandin action and accordingly they are potentially useful as anti-inflammatory agents, and as agents for the treatment of periodontal diseases and diarrhea. Testing for prostaglandin antagonist action is carried out in the following manner. Sections of ascending colon, approximately 20 mm. long, from mature male gerbils (Meriones unguiculatus) weighing 70-80 g. were mounted in De Jalon's solution (154 mM NaCl; 5.95 mM NAHCO3; […], 5.64 mM KC and .27 mM CaCl2 in 20 ml. tissue baths) (L and K Glass Co., Lynnhurst, N.J.). The medium was continually gassed with a mixture of 95% 02 -5% CO2 and maintained at 37° C. The tissues were suspended via silk suture threads between a glass hook at the base and a model FT .03C force displacement transducer (Grass Instruments, Quincy, Massachusetts). Contractions were recorded on a Poly-Viso ® polygraph (Sanborn Co., Cambridge, Massachusetts). After mounting, tissues were allowed to stabilize 15-20 minutes during which time adjustments were made to establish and maintain a 0.5 g. resting tension on the muscle. Thereafter, test cycles of 3-5 minutes were begun and consisted of a 1 minute exposure to the potential antagonist, if called for, followed by a 1 minute exposure to the prostaglandin agonist, a 15-30 sec. washout and a recovery period of 2-2.5 minutes. […] During the washout period, the tissue was rinsed with a measured amount equalling 8 volumes of medium. Muscle relaxation was virtually complete by the end of the washout period. During preliminary tests it was noted that a final concentration of 200 ng./ml. of a racemic mixture of synthetic prostaglandin-E1 (dl-PGE1) produced maximal muscle contraction. Following stabilization, muscles were exposed 2 to 3 times to this concentration of dl-PGE1 until a consistent response was recorded. Once maximal responses were established, test cycles with potential antagonists were commenced and were followed alternately with prostaglandin-only test cycle. […] The contraction of the muscle induced by 200 ng./ml. dl-PGE1 following exposure to a given concentration of the potential antagonist was always compared to the response of the tissue to that level of dl PGE1 in the immediately preceding cycle. Using a series of potential antagonist concentrations, an approximate ID50 (concentration at which 50% inhibition was observed) was established. The compounds were also tested against a sub-maximal prostaglandin challenge (20 ng./ml. dl-PGE1) in which case activity is reported in terms of a 50% inhibition of maximum response.
# diastolic blood pressure = assay: Prostaglandin-like hypotensive activity in anesthetized rats (minimal dose for about 10 mm. decrease in diastolic blood pressure); type: in vivo, Male Wistar strain rats; conditions: Rattus norvegicus; intravenous; decrease of about 10 mm. in diastolic blood pressure
# Method: This procedure is a modification of the technique described by Pike et al., Prostaglandins, Nobel Symposium 2, Stockholm, June, 1966; p, 165.
# Male Wistar strain rats (Royal Hart Farms) averaging approximately 250 grams in weight were fastened to rat boards in a supine position by means of canvas vests and limb ties. The femoral area was infiltrated subcutaneously with lidocaine and the iliac artery and vein exposed and cannulated. Arterial blood pressure (systolic/diastolic) was recorded using a Statham P23 Db pressure transducer-Offner dynograph system. To obtain a stable blood pressure, the animals were anesthetized before use with pentobarbital, 30 mg./kg. of body weight intravenously, and also were given hexamethonium bitartrate, 2 mg./kg. of body weight intravenously. The test compounds were prepared by ultrasonic dispersion in a saline-Tween 80 ® vehicle. A constant intravenous dose volume of 0.5 ml. was administered and test doses ranged from 0.1 to 10.0 mg./kg. of body weight. Increasing or decreasing doses were selected depending on the dose response obtained. In Table I below are set forth the minimal doses required to produce a decrease of about 10 mm. in diastolic blood pressure for typical compounds of the present invention.
# [2] = test system: Mycobacterium smegmatis ATCC 606; assay: agar-dilution streak-plate antimicrobial assay; type: cell-based; conditions: Mycolicibacterium smegmatis, ATCC606, read-out: Minimal inhibitory conc. (6)
# Method: The novel compounds of the present invention are also useful as antimicrobial agents. […] In this assay, the compounds to be tested are made up to contain 2.5 mg. of test compound per milliliter of solution. Observing sterile techniques, two-fold serial dilution are made of each test solution. One milliliter of each of the original solutions and of each of the serial dilutions is then added to 9 ml. of warm sterile nutrient agar capable of supporting growth of the bacterial test cultures. A second set of agar dilutions is prepared identical to the first except that the nutrient agar is designed to support the growth of the fungal test cultures. […] The test bacteria and yeast-like fungi are prepared for use by growing in broth overnight. The spores of the filamentous fungi are harvested from mature agar slant cultures and are suspended in sterile physiological saline solution. A loopful of each of the resulting live suspensions is then, still employing sterile techniques, streaked upon the surfaces of each of the agar plates and the resulting streaked plates are then incubated. After an appropriate period of time, each of the streaks on each of the plates is inspected visually and the extent, if any, of bacterial or fungal growth is noted. The minimal inhibitory concentration (expressed in micrograms per milliliter) is defined as the concentration of test compound causing complete inhibition of growth of any particular organism. In a representative operation, and merely by way of illustration, the minimal inhibitory concentration of typical compounds of the present invention against a variety of test organisms as determined in the above-described assay are set forth in Tables II and III below: […]
SMILES,inhibition in vivo at 100 mg/kg (gastric acid secretion) [%],other results
"CCCCCC/C=C/[C@@H]1CCC(=NNc2cc(Cl)ccc2Cl)[C@H]1CCCCCCC(=O)O (relative stereo) [9-Oxo-13-trans-prostenoic acid 2,5-dichlorophenylhydrazone]",30,–
"CCC/C=C/[C@@H]1CCCC(=O)[C@H]1CCCCCCC(=O)O (relative stereo) [9-oxo-18,19,20-trinor-10a-homo-13-trans-prostenoic acid]",39,IC50 [1]: 1 µg/mL
CC[S+]([O-])CCC/C=C/[C@@H]1CCC(=O)[C@H]1CCCCCCC(=O)O (relative stereo) [9-oxo-18-oxythia-13-trans-prostenoic acid],–,minimal effective dose (diastolic blood pressure): 2 to 8 mg/kg
"CC(C)/C=C/[C@H]1CCC(=O)[C@@H]1CCCCCCC(=O)O (relative stereo) [15-methyl-9-oxo-17,18,19,20-tetranor-13-trans-prostenoic acid]",–,IC50 [1]: 25 to 30 µg/mL
CCCCCC/C=C/[C@@H]1CCC(=O)[C@H]1CCCCCCC(=O)OCCCC (relative stereo) [butyl 9-oxo-13-trans-prostenoic acid],46,–
"CCCCC[C@H](O)/C=C/[C@H]1[C@H](O)CC(=O)[C@@H]1CCCCCCC(=O)O (relative stereo) [dl-PGE1, prostaglandin-E1, reference compound]",–,"final concentration that produced maximal muscle contraction ([1]; agonist alone, preliminary tests): 200 ng/mL"
"CCC/C=C/[C@@H]1CCC(=O)[C@H]1CCCCOCC(=O)OCC (relative stereo) [ethyl 9-oxo-3-oxa-18,19,20-trinor-13-trans-prostenoate]",65,–
CCCCCC/C=C/[C@@H]1CCC(=O)[C@H]1CCCCSCC(=O)OCC (relative stereo) [ethyl 9-oxo-3-thia-13-trans-prostenoate],39,–
"CCCCCC/C=C/[C@H]1CCC(=O)[C@@H]1CCCCC(=O)OCC (relative stereo) [ethyl 9-oxo-6,7-dinor-13-trans-prostenoate]",–,MIC [2]: 250 µg/mL
CCCCCC/C=C/[C@H]1CCCC(=O)[C@@H]1CCCCCCC(=O)OCC (relative stereo) [ethyl 9-oxo-10a-homo-13-trans-prostenoate],46,minimal effective dose (diastolic blood pressure): 2 mg/kg
CC/C=C\CC/C=C/[C@H]1CCC(=O)[C@@H]1CCCCCCC(=O)OCC (relative stereo) [ethyl 9-oxo-13-trans-17-cis-prostadienoate],–,minimal effective dose (diastolic blood pressure): 0.2 to 2 mg/kg
CCCCCC/C=C/[C@H]1CCC(=O)[C@@H]1CCCCCCC(=O)OCC (relative stereo) [ethyl 9-oxo-13-trans-prostenoate],28,minimal effective dose (diastolic blood pressure): 0.5 mg/kg
"CCC/C=C/[C@H]1CCCC(=O)[C@@H]1CCCCCCC(=O)OCC (relative stereo) [ethyl 9-oxo-18,19,20-trinor-10a-homo-13-transprostenoate]",37,–
CCOC(=O)CCCCCC[C@H]1C(=O)CC[C@@H]1/C=C/CCCS(=O)(=O)CC (relative stereo) [ethyl 9-oxo-18-dioxythia-13-trans-prostenoate],34,–
CCOC(=O)CCCCCC[C@H]1C(=O)CC[C@@H]1/C=C/CCCCCCI (relative stereo) [ethyl 20-iodo-9-oxo-13-trans-prostenoate],42,MIC [2]: 62 µg/mL
CCCCCCC/C=C/[C@H]1CCC(=O)[C@@H]1CCCCCCC(=O)OCC (relative stereo) [ethyl 20-methyl-9-oxo-13-trans-prostenoate],36,minimal effective dose (diastolic blood pressure): 0.5 mg/kg
CCCCCCC=CC1CC(c2ccccc2)C(=O)C1CCCCCCC(=O)OCC (stereo not drawn) [Ethyl 9-oxo-10-phenyl-13-trans-prostenoate],24,–
CCCCCCC=CC1CC(C#N)C(=O)C1CCCCCCC(=O)OCC (stereo not drawn) [Ethyl 10-cyano-9-oxo-13-trans-prostenoate],–,IC50 [1]: 10 to 25 µg/mL
CCCCCCC=CC1CC(F)C(=O)C1CCCCCCC(=O)OCC (stereo not drawn) [Ethyl 10-fluoro-9-oxo-13-trans-prostenoate],25,–
CCCCCCC=CC1CC(SC)C(=O)C1CCCCCCC(=O)OCC (stereo not drawn) [Ethyl 10-methylthio-9-oxo-13-trans-prostenoate],35,–
"CCCCCC/C=C/[C@H]1CCC(O)[C@@H]1CCCCCCC(=O)OCC (stereo partly drawn) [ethyl 9-hydroxy-13-trans-prostenoate, ethyl 9α- and 9β-hydroxy-13-trans-prostenoate]",–,MIC [2]: 25 µg/mL
"CCCC=CC1CCC(=O)C1CCCCCC(F)C(=O)OCC (stereo not drawn) [ethyl 9-oxo-2-fluoro-18,19,20-trinor-13-trans-prostenoate]",84,–
